Legend:
[1] = tested on: iBMM macrophages; test: Transcriptional responses in LPS-induced iBMM macrophages (qRT-PCR); type: cell-based, mouse; settings: 24 hr
Description: Immortalized bone marrow derived mouse macrophages (iBMMs) and BV2 mouse microglia cell line were used in the present study. Both cell types were maintained in DMEM media supplemented with 10% FBS and antibiotic-antimycotic mix. Cells were seeded into 12 well plates at the density of 3×10^5 cells/well. Cells were treated with the indicated concentrations of MIND4-17 compounds for 24 hr. Cells were then stimulated with 10 ng/ml LPS (E. coli, Sigma) for 2 hr. Total RNA was isolated using ZR Miniprep kit (Zymo Research). […] of total RNA was used to prepare cDNA. Gene expression was analyzed using VeriQuest SYBR green assay (Affymetrix) in Roche480 thermocycler. Primer sequences are as described above (see Example 9).

[2] = tested on: NRF2 responsive genes; test: Microarray gene expression profiling in mutant HTT ST14A cells (Case III); type: cell-based, rat; settings: 5 μM 24 hours vs untreated
Description: RNA was extracted from HD mutant and wild type ST14A cells, differentiated for 24 hours and treated with vehicle (DMSO) or with 5 μM MIND4, using the RNeasy kit (Qiagen). Labeled cRNAs were prepared and hybridized to Affymetrix GeneChip Rat Genome 230 2.0 microarrays according to the manufacturer's instructions. Affymetrix CEL (intensity) files from hybridized arrays were imported into the Partek Genome Suite, Partek Incorporated, for biostatistical analysis. 2 CEL files were used for each experimental condition: wild type (WT) untreated, MIND4 treated (WT/MIND4), mutant (MTT) untreated, and mutant (MTT) MIND4-terated (MTT/MIND4). Two-way ANOVA was performed with interaction term included and three of the evaluated contrasts were of interest (Case I, II, and III). Gene lists were created for each of the three contrasts using the thresholds of absolute value of fold-change>1.5 and p-value with False Discovery Rate (FDR)<0.05. The lengths of the gene lists are for Case I (DP)-1765 genes, for Case II (TP)-1797 genes, and for Case III (MDDP)-268 genes. These three gene lists were imported into Ingenuity IPA for pathway and network analyses. These analyses provided Networks (graph structures of molecules connected by relationships in the IPA knowledgebase), Functions (lists of molecules grouped together due to their contribution to a biological function) and Canonical Pathways (molecules and relationships that participate in a biological pathway). Scores are assigned according to the probability that the genes from the user's list might appear in the function or pathway by chance (right-tailed Fisher's Exact Test).
To determine whether MIND4 might engage targets other than SIRT2, the gene expression changes in treated versus untreated mutant HTT and wild type ST14A cells were evaluated using an approach described previously (Luthi-Carter et al., 2010). RNA from rat embryonic striatal (ST14A) cells stably expressing a 546 amino acid HTT fragment containing either an expanded (128Q) or wild type (26Q) repeat was extracted following treatment with 5 μM MIND4 for 24 hours was extracted and run on Affymetrix rat microarrays (Affy GeneChip Rat Genome 230 2.0 array) as described above in General Methods. Two replicates for each of the experimental conditions were imported into Partek Genome Suite for biostatistical analysis. Genes showing significant differential expression were identified by ANOVA, for three contrasts, resulting in three gene-lists: mutant HD (MT) vs. wild type (WT)=Case I (Disease Phenotype); MT/MIND4 treated vs. WT=Case II (Treatment Phenotype), and MT/MIND4 treated vs. MT=Case III (Mutant Drug-Dependent Phenotype). These represented transcriptional alterations in MT compared to WT cells (Case I), in MT treated compared to WT cells (Case II), and in MT treated cells compared to untreated MT cells (Case III). The lists, Cases I-III, were then imported into Ingenuity Pathway Analysis (IPA—Ingenuity® Systems, www.ingenuity.com) for pathway and network analyses.

[3] = tested on: dopaminergic neurons; test: MPTP mouse model of Parkinson's disease; type: in vivo
Description: Male C57BL/6 mice (˜25 g) from Charles River Laboratories, Wilmington, Mass. were housed in temperature- and humidity-controlled rooms with a 12 hr dark: light cycle and had free access to food and water. Subacute MPTP paradigm (20 mg/kg i.p. injection once daily for 4 days) was employed to test dose response of MIND4 at 30 mg/kg, 60 mg/kg, or 90 mg/kg (i.p. 10 min before and 50 min after each MPTP injection). The effective dose of 60 mg/kg was used in the subsequent experiments (i.p. 10 min before and 50 min after each MPTP injection). Control animals received saline (control for MPTP) and 10% propylene glycol and 90% dextrose as vehicle for MIND4 by i.p. Mice were sacrificed 7 days after the last MPTP administration and striatal DA and metabolite HVA were determined by high performance liquid chromatography (HPLC) coupled with electrochemical detection (ECD) Immunostaining for tyrosine hydroxylase (TH), a marker for dopaminergic neurons was performed using mouse anti-TH antibody (Sigma, ST. Louis, Mo.). Total numbers of TH positive neurons in the substantia nigra (SN) were counted under blinded conditions using the Bioquant Image Analysis System (R&M Biometrics, Nashville, Tenn.).
The protective effects of CPD4 have been confirmed in both acute and subchronic PTP paradigms by comprehensive behavioral, neurochemical, and neuropathological evaluations (FIG. 18). CPD4 was administrated i.p. at 20 mg/kg 10 min before and 50 min after MPTP 20 mg/kg i.p. once daily for 4 days (subchronic regimen) (FIG. 18A). High performance liquid chromatography (HPLC) coupled with electrochemical detection was used to show attenuated dopamine (DA) loss induced by MPTP in the striatum (FIG. 18B). Dopaminergic cell counts in the substantia nigra (SN) were also measured in treated mice and compared to the control (MPTP group) (FIG. 18C). Tyrosine hydroxylase (TH) immunostained dopaminergic neurons were also imaged in the SN (FIG. 18D).

Structure (SMILES): O=[N+]([O-])c1ccc(Sc2nnc(COc3ccccc3)n2-c2ccccc2)nc1 [MIND4-17]
- Expression of inflammatory factors TNFα, IL-6, IL-1β and MCP-1 [1]: repressed expression of inflammatory factors
- Transcription of GCLM and NQO1 [1]: increased transcription of GCLM and NQO1

Structure (SMILES): O=[N+]([O-])c1ccc(Sc2nnc(COc3ccccc3)n2-c2ccccc2)c2ncccc12 [MIND4, 5-nitro-8-{[5-(phenoxymethyl)-4-phenyl-4H-1,2,4-triazol-3-yl]thio}quinoline]
- Fold Increase, AOX1 [2]: 3.18 fold
- Fold Increase, CAT [2]: 1.72 fold
- Fold Increase, DNAJA4 [2]: 1.53 fold
- Fold Increase, DNAJB9 [2]: 1.63 fold
- Fold Increase, FRA1 [2]: 3.17 fold
- Fold Increase, GCLC [2]: 2.11 fold
- Fold Increase, GCLM [2]: 3.32 fold
- Fold Increase, GSR [2]: 2.14 fold
- Fold Increase, GSTA3 [2]: 20.09 fold
- Fold Increase, GSTM5 [2]: 1.89 fold
- Fold Increase, GSTP1 [2]: 2.21 fold
- Fold Increase, GSTT2/GSTT2B [2]: 1.96 fold
- Fold Increase, HERPUD1 [2]: 1.55 fold
- Fold Increase, HO-1 [2]: 6.14 fold
- Fold Increase, KEAP1 [2]: 1.53 fold
- Fold Increase, MAFF [2]: 1.75 fold
- Fold Increase, MGST1 [2]: 1.84 fold
- Fold Increase, MGST2 [2]: 2.94 fold
- Fold Increase, MRP4 [2]: 3.37 fold
- Fold Increase, NQO1 [2]: 7.34 fold
- Fold Increase, SQSTM1 [2]: 1.82 fold
- Fold Increase, TRXR1 [2]: 3.31 fold
- MPTP induced DA loss in the striatum ([3]; 60 mg/kg i.p.): mild but significant protection
- Residual DA and DA turnover rate (HVA/DA) ([3]; 60 mg/kg vs MPTP group): increased level of residual DA and decreased DA turnover rate
- Dopaminergic neurons in the SN (stereological analysis) ([3]; vs MPTP alone group): more remaining dopaminergic neurons

— patent publication US9737525B2, “Small molecule activators of NRF2 pathway” (The General Hospital Corporation, priority 2013, dated 2017)
